What was measured:
spring wheat (TRZAS) = test: Greenhouse postemergence phytotoxicity on crop, visual injury after 20-22 d; assay type: in vivo, Triticum aestivum; conditions: for visual injury: Table 1
Excerpt: (§1) Seeds of the desired test plant species were planted in a 90:10% v/v (volume/volume) mixture of PRO-MIX® BX (Premier Tech Horticulture, Quakertown, Pa., USA) and PROFILE® GREENS GRADE™ (Profile Products LLC, Buffalo Grove, Ill., USA) planting mixture, which typically has a pH of 5.2 to 6.2 and an organic matter content of at least 50 percent, in plastic pots with a surface area of 103.2 square centimeters (cm^2). In some aspects, to ensure good germination and healthy plants, a fungicide treatment and/or other chemical or physical treatment was applied. The plants were grown for 7-36 days (d) in a greenhouse with an approximate 14-hour (h) photoperiod which was maintained at about 23° C. during the day and 22° C. during the night. Nutrients and water were added on a regular basis and supplemental lighting was provided with overhead metal halide 1000-Watt lamps as necessary. The plants were employed for testing when they reached the second or third true leaf stage.
(§2) Emulsifiable concentrates of each of each pyridine carboxylate herbicide (Compound A or Compound B) were prepared at 100 grams acid equivalent per liter (g ae/L). The emulsifiable concentrates also included a safener, cloquintocet-mexyl, at 120 grams active ingredient per liter (g ai/L). An aliquot of each emulsifiable concentrate was placed in a 25 mL glass vial and diluted with an aqueous mixture of 1.25% (v/v) ACTIROB® B esterified rapeseed oil (Bayer Crop Science, Research Triangle Park, N.C., USA) or MSO® Concentrate with LECI-TECH® methylated soybean oil (Loveland Products, Loveland, Colo., USA) to obtain concentrated stock solutions at the highest application rate for each herbicide, based upon a 12 milliliter (mL) application volume at a rate of 187 liters per hectare (L/ha). The concentrated stock solutions were further diluted with an aqueous mixture of 1.25% v/v ACTIROB® B or MSO® Concentrate with LECI-TECH® to obtain stock solutions at reduced application rates for each herbicide. Spray solutions of the herbicide combinations (Compound A or Compound B plus PDS inhibitor herbicide) were prepared by adding weighed amounts or aliquots of the PDS inhibitor herbicide to the stock solutions of Compound A or Compound B to form 12-mL spray solutions in two- or three-way combinations.
(§3) The spray solutions were applied to the plant material with an overhead Mandel track sprayer equipped with 8002E nozzles calibrated to deliver 187 L/ha over an application area of 0.503 square meters (m^2) at a spray height of 18 inches ([…] centimeters (cm)) above the average plant canopy. Control plants were sprayed in the same manner with the solvent blank. All pyridine carboxylate herbicide (component a) application rates are given as “g ae/ha” and all PDS inhibitor herbicide (component b) application rates are given as “g ai/ha.”
(§4) The treated plants and control plants were placed in a greenhouse as described above and watered by sub-irrigation to prevent wash-off of the test compounds. After 20-22 d, the condition of the test plants as compared with that of the control plants was determined visually and scored on a scale of 0 to 100 percent where 0 corresponds to no injury and 100 corresponds to complete kill.

spring barley (HORVS) = test: as above; assay type: in vivo, Hordeum vulgare; conditions: for visual injury: Table 1
Excerpt: as §1, §2, §3, §4

SMILES: N#CCOC(=O)c1nc(-c2ccc3cc[nH]c3c2F)c(F)c(N)c1Cl [Compound A, cyanomethyl 4-amino-3-chloro-5-fluoro-6-(7-fluoro-1H-indol-6-yl)pyridine-2-carboxylate]
- visual injury (spring wheat (TRZAS); 7.5 g/ha): 0%
- visual injury Obs (spring wheat (TRZAS); 7.5 g/ha, Table 2): 0%
- visual injury Obs (spring wheat (TRZAS); 7.5 g/ha, Table 3): 0%
- visual injury Obs (spring wheat (TRZAS); 7.5 g/ha, Table 5): 0%
- visual injury Obs (spring wheat (TRZAS); 7.5 g/ha, Table 6): 0%
- visual injury Obs (spring wheat (TRZAS); 7.5 g/ha, Table 7): 0%
- visual injury Obs (spring wheat (TRZAS); 7.5 g/ha, Table 8): 3%
- visual injury (spring wheat (TRZAS); 10 g/ha): 0%
- visual injury Obs (spring wheat (TRZAS); 10 g/ha, Table 2): 0%
- visual injury Obs (spring wheat (TRZAS); 10 g/ha, Table 3): 0%
- visual injury Obs (spring wheat (TRZAS); 10 g/ha, Table 5): 0%
- visual injury Obs (spring wheat (TRZAS); 10 g/ha, Table 6): 0%
- visual injury Obs (spring wheat (TRZAS); 10 g/ha, Table 7): 0%
- visual injury Obs (spring wheat (TRZAS); 10 g/ha, Table 8): 3%
- visual injury Obs (spring wheat (TRZAS); 15 g/ha, Table 8): 0%
- visual injury (spring barley (HORVS); 7.5 g/ha): 0%
- visual injury Obs (spring barley (HORVS); 7.5 g/ha, Table 2): 8%
- visual injury Obs (spring barley (HORVS); 7.5 g/ha, Table 3): 0%
- visual injury Obs (spring barley (HORVS); 7.5 g/ha, Table 7): 0%
- visual injury Obs (spring barley (HORVS); 7.5 g/ha, Table 8): 8%
- visual injury (spring barley (HORVS); 10 g/ha): 0%
- visual injury Obs (spring barley (HORVS); 10 g/ha, Table 2): 0%
- visual injury Obs (spring barley (HORVS); 10 g/ha, Table 3): 0%
- visual injury Obs (spring barley (HORVS); 10 g/ha, Table 7): 0%
- visual injury Obs (spring barley (HORVS); 10 g/ha, Table 8): 5%
- visual injury Obs (spring barley (HORVS); 15 g/ha, Table 8): 3%
